ChEMBL document CHEMBL1201862, “PubChem BioAssay data set” (2004)
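Following 48 hours of exposure in 96-well plates, responses at five concentrations were used to interpolate endpoints linearly. GI50 = concentration required for 50% inhibition of growth.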 The source made the active and inactive calls. No stated cut-off is given here; in the data, active = GI50 up to about 1.1 µM and inactive = higher.

Key:
Assay in all cases: NCI tumour cell line growth inhibition, 48 h
786-0 = system: 786-0
ACHN = system: ACHN
CAKI-1 = system: CAKI-1
CCRF-CEM = system: CCRF-CEM
HCT-116 = system: HCT-116
HT-29 = system: HT-29
M14 = system: M14
MDA-MB-231 = system: MDA-MB-231
MDA-MB-435 = system: MDA-MB-435
MOLT-4 = system: MOLT-4
NCI-H226 = system: NCI-H226
NCI-H460 = system: NCI-H460
RXF 393 = system: RXF 393
SF-295 = system: SF-295
SK-MEL-2 = system: SK-MEL-2
SK-MEL-5 = system: SK-MEL-5
SNB-75 = system: SNB-75
SW-620 = system: SW-620
UO-31 = system: UO-31
SR = system: SR

| Structure (SMILES) | GI50 (786-0) | GI50 (ACHN) | GI50 (CAKI-1) | GI50 (CCRF-CEM) | GI50 (HCT-116) | GI50 (HT-29) | GI50 (M14) | GI50 (MDA-MB-231) | GI50 (MDA-MB-435) | GI50 (MOLT-4) | GI50 (NCI-H226) | GI50 (NCI-H460) | GI50 (RXF 393) | GI50 (SF-295) | GI50 (SK-MEL-2) | GI50 (SK-MEL-5) | GI50 (SNB-75) | GI50 (SW-620) | GI50 (UO-31) | GI50 (SR) |
| --- | --- | --- | --- | --- | --- | --- | --- | --- | --- | --- | --- | --- | --- | --- | --- | --- | --- | --- | --- | --- |
| C=C(C)C1CCC(C(=O)O)CC1 (configuration not stated) | > 100 µM (inactive) | > 100 µM (inactive) | > 100 µM (inactive) | > 100 µM (inactive) | > 100 µM (inactive) | > 100 µM (inactive) | > 100 µM (inactive) | > 100 µM (inactive) | > 100 µM (inactive) | > 100 µM (inactive) | > 100 µM (inactive) | > 100 µM (inactive) | > 100 µM (inactive) | > 100 µM (inactive) | > 100 µM (inactive) | > 100 µM (inactive) | > 100 µM (inactive) | > 100 µM (inactive) | > 100 µM (inactive) | – |
| O=C(/C=C/c1ccccc1)NNC(=O)c1c(Cl)c(Cl)c(Cl)c(Cl)c1-c1nc2ccccc2[nH]1 | 4.5 µM (inactive) | 32.5 µM (inactive) | 33.3 µM (inactive) | 27 µM (inactive) | 22.1 µM (inactive) | 32.8 µM (inactive) | 25.8 µM (inactive) | – | 15.7 µM (inactive) | 32.4 µM (inactive) | 13.9 µM (inactive) | 23.7 µM (inactive) | 18.8 µM (inactive) | 0.0472 µM (active) | 39.4 µM (inactive) | 22 µM (inactive) | 18.2 µM (inactive) | 33.3 µM (inactive) | 19.5 µM (inactive) | 12.9 µM (inactive) |
| CC1(C)CC(=O)C(=CNc2nc(-c3ccccc3)cs2)C(=O)C1 | > 100 µM (inactive) | 40.5 µM (inactive) | – | – | > 100 µM (inactive) | 33.6 µM (inactive) | 41.1 µM (inactive) | 34.8 µM (inactive) | 24.9 µM (inactive) | 32.4 µM (inactive) | 29 µM (inactive) | 30.7 µM (inactive) | – | 57.9 µM (inactive) | 34.7 µM (inactive) | 38.1 µM (inactive) | 33.7 µM (inactive) | 31.4 µM (inactive) | 20.7 µM (inactive) | – |
| COC(=O)CCC1(CCC(=O)OC)CCCCCCC(CCC(=O)OC)(CCC(=O)OC)C(=O)C1=O | > 100 µM (inactive) | > 100 µM (inactive) | > 100 µM (inactive) | – | > 100 µM (inactive) | 60.3 µM (inactive) | 74.1 µM (inactive) | – | > 100 µM (inactive) | – | > 100 µM (inactive) | 93.8 µM (inactive) | > 100 µM (inactive) | > 100 µM (inactive) | > 100 µM (inactive) | 59 µM (inactive) | 49.1 µM (inactive) | – | 44.4 µM (inactive) | – |
| C=CCN1C(=O)CC1N(CC=C)S(=O)(=O)c1ccc(C)cc1 (configuration not stated) | > 100 µM (inactive) | > 100 µM (inactive) | > 100 µM (inactive) | > 100 µM (inactive) | > 100 µM (inactive) | > 100 µM (inactive) | > 100 µM (inactive) | – | > 100 µM (inactive) | > 100 µM (inactive) | > 100 µM (inactive) | > 100 µM (inactive) | > 100 µM (inactive) | > 100 µM (inactive) | – | > 100 µM (inactive) | – | > 100 µM (inactive) | > 100 µM (inactive) | 82.8 µM (inactive) |
| CCOC(=O)C(C/C=C/CO)N(C)C(=O)OC(C)(C)C (configuration not stated) | > 100 µM (inactive) | > 100 µM (inactive) | > 100 µM (inactive) | 28.1 µM (inactive) | > 100 µM (inactive) | > 100 µM (inactive) | > 100 µM (inactive) | > 100 µM (inactive) | – | > 100 µM (inactive) | > 100 µM (inactive) | > 100 µM (inactive) | > 100 µM (inactive) | > 100 µM (inactive) | > 100 µM (inactive) | > 100 µM (inactive) | 50.9 µM (inactive) | > 100 µM (inactive) | > 100 µM (inactive) | 94.8 µM (inactive) |
| C/C(=N\n1c(Cc2ccccc2)n[nH]c1=O)c1ccccc1 | > 100 µM (inactive) | > 100 µM (inactive) | > 100 µM (inactive) | > 100 µM (inactive) | > 100 µM (inactive) | > 100 µM (inactive) | > 100 µM (inactive) | > 100 µM (inactive) | > 100 µM (inactive) | > 100 µM (inactive) | > 100 µM (inactive) | – | > 100 µM (inactive) | – | > 100 µM (inactive) | > 100 µM (inactive) | – | > 100 µM (inactive) | > 100 µM (inactive) | – |
| OC1(c2ccccc2)CCCCCCCCC(O)(c2ccccc2)CCCCCCCC1 (configuration not stated) | > 100 µM (inactive) | > 100 µM (inactive) | > 100 µM (inactive) | – | > 100 µM (inactive) | > 100 µM (inactive) | > 100 µM (inactive) | – | > 100 µM (inactive) | – | – | > 100 µM (inactive) | > 100 µM (inactive) | > 100 µM (inactive) | > 100 µM (inactive) | > 100 µM (inactive) | > 100 µM (inactive) | > 100 µM (inactive) | > 100 µM (inactive) | > 100 µM (inactive) |
| NC(=O)NC(=O)C1CCCCC1C(=O)O (configuration not stated) | > 100 µM (inactive) | > 100 µM (inactive) | > 100 µM (inactive) | > 100 µM (inactive) | > 100 µM (inactive) | > 100 µM (inactive) | > 100 µM (inactive) | > 100 µM (inactive) | > 100 µM (inactive) | – | > 100 µM (inactive) | > 100 µM (inactive) | > 100 µM (inactive) | > 100 µM (inactive) | > 100 µM (inactive) | > 100 µM (inactive) | > 100 µM (inactive) | > 100 µM (inactive) | > 100 µM (inactive) | – |
| CCOc1ccc(N/C(=C(/C(Cl)=C(/Cl)Nc2ccccc2)[N+](=O)[O-])n2nnc3ccccc32)cc1 | 22.2 µM (inactive) | 25.8 µM (inactive) | 23.5 µM (inactive) | – | 22.8 µM (inactive) | – | 16 µM (inactive) | 24.5 µM (inactive) | 29.4 µM (inactive) | 14.8 µM (inactive) | 40.1 µM (inactive) | 27 µM (inactive) | – | 51.3 µM (inactive) | 26.3 µM (inactive) | 17.7 µM (inactive) | 57.1 µM (inactive) | – | 17.1 µM (inactive) | – |
| Cc1ccc(-c2cc(-c3ccc(Cl)cc3)nc(/N=C3\C(=O)N(CN4CCOCC4)c4ccccc43)n2)cc1 | 21.4 µM (inactive) | 23.3 µM (inactive) | 32 µM (inactive) | 14.3 µM (inactive) | 24.9 µM (inactive) | 20.1 µM (inactive) | 26.2 µM (inactive) | 33.3 µM (inactive) | 19 µM (inactive) | 8.69 µM (inactive) | 35.6 µM (inactive) | 14 µM (inactive) | 16.4 µM (inactive) | 40.9 µM (inactive) | 18.3 µM (inactive) | 17.6 µM (inactive) | 25.4 µM (inactive) | 17 µM (inactive) | – | – |
| CC(=O)C(C(C)=O)[C@H]1OC(C)(C)O[C@H]1[C@H]1COC(C)(C)O1 | 51.3 µM (inactive) | 57.5 µM (inactive) | 73.6 µM (inactive) | 36.9 µM (inactive) | 45.2 µM (inactive) | 33.6 µM (inactive) | 44.3 µM (inactive) | 28.6 µM (inactive) | 27.7 µM (inactive) | 50.8 µM (inactive) | – | 32.4 µM (inactive) | 36.2 µM (inactive) | 29.2 µM (inactive) | 22.6 µM (inactive) | 29.1 µM (inactive) | 42.2 µM (inactive) | 56.8 µM (inactive) | 49.8 µM (inactive) | – |
| COc1ccc(N(c2ccc(C#N)cc2)c2ccc(C#N)cc2)cc1 | > 100 µM (inactive) | > 100 µM (inactive) | > 100 µM (inactive) | 3.07 µM (inactive) | 93.5 µM (inactive) | 9.89 µM (inactive) | > 100 µM (inactive) | > 100 µM (inactive) | > 100 µM (inactive) | 5.2 µM (inactive) | > 100 µM (inactive) | > 100 µM (inactive) | – | > 100 µM (inactive) | > 100 µM (inactive) | > 100 µM (inactive) | > 100 µM (inactive) | > 100 µM (inactive) | 22.2 µM (inactive) | – |
| CC(C)(C)c1ccc(C(C)(C)C)c(N2C(=O)C3ON=C(c4ccc([N+](=O)[O-])cc4)C3C2=O)c1 (configuration not stated) | 3.15 µM (inactive) | 15.2 µM (inactive) | > 25 µM (inactive) | > 25 µM (inactive) | 13.7 µM (inactive) | 21.4 µM (inactive) | > 25 µM (inactive) | – | 8.77 µM (inactive) | > 25 µM (inactive) | 18.6 µM (inactive) | 6.75 µM (inactive) | 15.1 µM (inactive) | 12.9 µM (inactive) | – | > 25 µM (inactive) | 5.07 µM (inactive) | 16.2 µM (inactive) | 22.1 µM (inactive) | 3.48 µM (inactive) |
| CON(C)C(=O)C(Cc1ccccc1)NC(=O)OC(C)(C)C (configuration not stated) | > 100 µM (inactive) | > 100 µM (inactive) | – | > 100 µM (inactive) | > 100 µM (inactive) | > 100 µM (inactive) | > 100 µM (inactive) | – | > 100 µM (inactive) | > 100 µM (inactive) | > 100 µM (inactive) | > 100 µM (inactive) | > 100 µM (inactive) | > 100 µM (inactive) | – | > 100 µM (inactive) | > 100 µM (inactive) | > 100 µM (inactive) | > 100 µM (inactive) | > 100 µM (inactive) |
| CC1=CC2(C)C=C[C@@H]1C(=O)[C@@]1(C)CC[C@@](O)(C(C)C)[C@H]1CC2 | 17.3 µM (inactive) | 17.6 µM (inactive) | – | 21.6 µM (inactive) | 17.3 µM (inactive) | 16.1 µM (inactive) | 19.3 µM (inactive) | 17.5 µM (inactive) | 20.3 µM (inactive) | 24.8 µM (inactive) | 23.4 µM (inactive) | 18.4 µM (inactive) | 19.4 µM (inactive) | 16.7 µM (inactive) | 33.3 µM (inactive) | 19.7 µM (inactive) | 20.9 µM (inactive) | 18.8 µM (inactive) | 17.6 µM (inactive) | – |
